“Also recorded” adds a separate entry of the source.
Columns and labels:
endothelial cells [1] = assay: I125-VEGF binding to endothelial cells in presence of peptide; assay type: cell-based; settings: for VEGF binding to cells (endothelial cells) with #237 fragments: 100 μg/ml of each peptide
Method: (§1) 10000 cells were incubated in binding buffer containing 20 mM Hepes, 0.1% BSA and I125-VEGF (12 ng/ml) for 3 h on ice.
(§2) In order to characterize the effect of the peptides on VEGF binding to endothelial and melanoma cells, the cells were incubated with various peptides (720 μg/ml) in the presence of […] (12 ng/ml) (FIG. 3). Peptide #237 increased VEGF binding to endothelial as well to melanoma cells. 10000 cells were incubated in binding buffer containing 20 mM Hepes, 0.1% BSA and I^125-VEGF (12 ng/ml) for 3 h on ice. Following 3 washings, the radioactive levels were determined by gamma counter. An increase of more than 25 times in I^125-VEGF binding was observed when peptide #237 was added to both kinds of cells. All other peptides had no effect on VEGF binding.
(§3) To characterize which are the essential amino acids within the #237 peptide that are crucial to accelerate VEGF binding to the cells, three shorter peptides were designed as presented at Table 2. The cells were treated with the smaller peptides in the same way as described in FIG. 3. 10000 cells were incubated in binding buffer containing 20 mM Hepes, 0.1% BSA, I^125-VEGF (12 ng/ml) and 100 μg/ml of each peptide, for 3 h on ice. Following 3 washings with binding buffer, the radioactive levels were determined using a gamma counter.
The inventors also investigated which amino acid residues in peptide #237 are important for the various angiogenic and VEGF related binding activity described herein. To achieve this, the inventors singly changed each of the 12 amino acid residues in peptide #237 to alanine and performed experiments examining the effect of the alanine substitution at various positions on endothelial cell binding to VEGF. A total of 12 alanine substituted peptides were made and tested: Ala-1, Ala-2, Ala-3, Ala-4, Ala-5, Ala-6, Ala-7, Ala-8, Ala-9, Ala-10, Ala-11, Ala-12, (SEQ. ID. NOS. 39-50) wherein the number indicate the position where the alanine substitution occurred. (Note that the amino acid at position 12 of peptide #237 was changed to glycine in Ala-12). In addition, a “flip #237” peptide having the sequence AAVVTTTQRQVRD (SEQ. ID. NO. 53) was also made and studied.

B16-F10 melanoma cells = assay: I125-VEGF binding to melanoma cells in presence of peptide; assay type: cell-based; settings: I125-VEGF 12 ng/ml, 3 h on ice
Method: as §1, §2, §3

mouse corneas = assay: Corneal micropocket assay with VEGF pellet; assay type: in vivo; settings: pellet 160 ng VEGF 165 + 1.3 ug #237 vs VEGF pellet alone, 5 days
Method: Vigorous vessel in-growth from the limbus at 5 days was recorded as a positive response.
In order to evaluate the modulating effect of peptide #237 on the angiogenesis process, a corneal micropocket assay was performed. Two kinds of pellets were created, both containing 160 ng carrier-free recombinant human VEGF 165 (R&D Systems, Minneapolis, Minn.), one of which contains 1.3 ug of #237 peptide. The pellets were implanted into micropockets created in the cornea of two groups of anesthetized mice (n=4). Through the use of standardized slow-release pellets, a predictable angiogenic response is generated over the course of 5 days and then quantified. The area of neovascularization was calculated as vessel area, which is calculated as the product of vessel length measured from the limbus and clock hours around the cornea, using the following equation: vessel area (mm^2)=[clock hours×vessel length (mm)×0.2 mm]. […] The in vivo experiment confirms that the peptide stimulates cell proliferation, and is therefore a good candidate to induce angiogenesis.

endothelial cells [2] = assay: Matrigel assay, endothelial cell migration in vivo (FACS); parameters: species or system C57bl mice; settings: for endothelial cells among matrigel liberated cells (FACS, CD31): Matrigel s.c. with 500 ng VEGF, with or without 180 μg #237, day 6
Method: On day 6, animals were sacrificed and fluorescence-activated cell sorting (FACS) analysis was used for determination of the matrigel liberated cells. In order to distinguish the endothelial cells from hematopoietic cells, the cells were incubated with two antibodies CD31-PE and CD45-APC which are specific to endothelial cells and hematopoietic cells respectively.

nude mouse ear wound = assay: Ear wound neovascularization model; assay type: in vivo; settings: matrigel containing #237 (180 μg) daily for 5 days, 2.25 mm punch, vs plain matrigel
Method: Microvascular in-growth into damaged tissue is an essential component of the normal healing process. In fact, wound therapy is often aimed at promoting neovascularization. The model consists of wounding the dorsal aspect of the ear of a nude mouse. A circular punch was used to create a standardized wound on a nude mouse ear. Constant diameter of wound is given by the size of the punch (2.25 mm), and the ears were treated daily with plain matrigel (FIG. 8A) or matrigel containing peptide #237 (180 μg) (FIG. 8B) for 5 days. […] In order to evaluate the wound neovascularization, the mice were inoculated by dextran-FITC which specifically labeled the endothelial cells, immediately after anesthetizing them.

mouse ear wound = assay: Mouse ear punch wound healing model, 14 days; assay type: in vivo; settings: MATRIGEL containing #237 daily, day 14, vs MATRIGEL
Method: In addition to increasing angiogenesis, peptide #237 also accelerates wound healing. In order to evaluate the effect of the peptide on wound healing, ears of five mice were wounded using a circular punch, which creates a wound measuring 1 mm. The ears of wounded mice were treated daily with either MATRIGEL or MATRIGEL containing #237 peptide for 14 days.

[3] = test system: Primary cortical neuronal cells; assay: Neurite outgrowth in primary cortical neuronal cells; assay type: cell-based; settings: 0.25 μg/μL, 2 days, compared to scrambled peptide
Method: Primary cortical neuronal cells (2×10^4 per well) were plated on poly-L-lysine coated 24 well dishes and treated with either scrambled #237 or peptide #237 (0.25 μg/μL). Cells were then cultured for 2 days.
Neurite outgrowth was evaluated by counting the number of neurites extended from the same number of cells and at the same area.
Peptide 237 increases neurite outgrowth in terminally differentiated cortical neurons. The number of neurite arborizations in these postmitotic cells was estimated using light microscopy by manually counting the number of projections in a given field containing approximately equivalent number of cells. Quantification of neurite outgrowth was also performed by fluorescent staining with a neuron-specific marker (i.e., neurofilament) followed by automated, computational analysis (data not shown).

ischemic hind limb = assay: Mouse hind limb ischemia model (femoral artery ligation, laser Doppler); assay type: in vivo
Method: Mice were ligated in one of their femoral arteries (the right limb) to simulate hind limb ischemia. The blood flow in mice was analyzed by machine for each mouse before and immediately after the procedure to evaluate if the femoral was ligated properly. Blood flow was compared with the non-operated leg by a laser Doppler imager. […] The ischemic limb is seen as the limb on left side in the laser Doppler images.
In FIG. 12, the white areas indicate normal perfusion with normal blood circulation and black areas indicate no blood flow in the ischemic left hind limb. […] Dark shaded areas within the white areas located at the distal ends of the limbs indicate extremely good blood flow.
The blood flow of the ischemic hind limb is expressed as the ratio between the perfusion of the ischemic limb and the uninjured limb in FIG. 13.

[4] = test system: calvaria critical size defect; assay: Calvaria critical size defect bone repair experiment; assay type: in vivo, rat; settings: local treatment 28 days, 100 μg/mice/5 days, 5-mm defect, vs saline
Method: In this study, the inventors examined the ability of peptide #237 to enhance repair of a critical size defect in a rat calvaria critical size defect experiment. Critical size calvarial defects (5-mm diameter) were created in rats and locally treated with saline (control) or peptide #237 for 28 days (100 μg/mice/5 days). After 28 days, analysis of bone regeneration was determined by soft x-ray.

Ala-5: peptide #237 with the arginine at position 5 replaced by alanine (DRVQAQTTTVVA)
ability of endothelial cells to bind VEGF, alanine substituted #237 peptides (endothelial cells [1]; compared to the original #237): increased by more than twice

DRVQRQ [#237A]
VEGF binding to cells (endothelial cells) with #237 fragments (endothelial cells [1]; I125-VEGF 12 ng/ml, 3 h on ice): abolished; also recorded: not crucial to enhance VEGF binding

DRVQRQTTTVVA [Peptide #237]
increase in I125-VEGF binding to endothelial cells (endothelial cells [1]; peptide 720 μg/ml, I125-VEGF 12 ng/ml, 10000 cells, 3 h on ice): more than 25 times | increase in I125-VEGF binding to melanoma cells (B16-F10 melanoma cells; peptide 720 μg/ml, 10000 cells): more than 25 times | increase in vessel density versus control pellet (mouse corneas): 53% | endothelial cells relative to VEGF alone (endothelial cells [2]; 180 ug #237 added to VEGF in Matrigel, day 6): six times more | endothelial cells among matrigel liberated cells (FACS, CD31) (endothelial cells [2]): 0.42% | neovascularization around the ear wound site (nude mouse ear wound): significantly increased | wound area (mouse ear wound): significantly smaller | neurite outgrowth [3]: dramatically induces branched and longer neurites | limb perfusion (ischemic hind limb; intraperitoneal immediately following femoral artery occlusion, within three to six days): significantly improves limb perfusion | increase perfusion compared to saline-treated mice (ischemic hind limb; ratio ischemic/uninjured limb, on average): 30-40% | bone regeneration (soft x-ray) [4]: completely sealed and covered the aperture

TTTVVA [#237B]
VEGF binding to cells (endothelial cells) with #237 fragments (endothelial cells [1]; I125-VEGF 12 ng/ml, 3 h on ice): partially increases; also recorded: partial increase | VEGF binding to melanoma cells with #237 fragments (B16-F10 melanoma cells; 100 μg/ml of each peptide): better binding

VEGF [reference compound]
endothelial cells among matrigel liberated cells (FACS, CD31) (endothelial cells [2]): 0.07%

VQRQTTTV [#237C]
VEGF binding to cells (endothelial cells) with #237 fragments (endothelial cells [1]; I125-VEGF 12 ng/ml, 3 h on ice): abolished; also recorded: essentially eliminated

From patent publication US8618055B2, “Prominin-1 peptide fragments and uses thereof” (Children's Medical Center Corporation, priority 2008, dated 2013)
